Molecules are shown by their SMILES. Like-named read-outs stand apart in the source and are kept apart here. Some results are limits rather than exact numbers.

The text below walks through data of US20140171431A1, “AZOLE HETEROCYCLIC COMPOUND, PREPARATION METHOD, PHARMACEUTICAL COMPOSITION AND USE” (priority 2011, published 2014).

The target in assay [1] is T1, Lp-PLA2 in human serum (Homo sapiens, UniProt Q13093).
T1 construct: from tissue
T1 sequence (Q13093 22-441): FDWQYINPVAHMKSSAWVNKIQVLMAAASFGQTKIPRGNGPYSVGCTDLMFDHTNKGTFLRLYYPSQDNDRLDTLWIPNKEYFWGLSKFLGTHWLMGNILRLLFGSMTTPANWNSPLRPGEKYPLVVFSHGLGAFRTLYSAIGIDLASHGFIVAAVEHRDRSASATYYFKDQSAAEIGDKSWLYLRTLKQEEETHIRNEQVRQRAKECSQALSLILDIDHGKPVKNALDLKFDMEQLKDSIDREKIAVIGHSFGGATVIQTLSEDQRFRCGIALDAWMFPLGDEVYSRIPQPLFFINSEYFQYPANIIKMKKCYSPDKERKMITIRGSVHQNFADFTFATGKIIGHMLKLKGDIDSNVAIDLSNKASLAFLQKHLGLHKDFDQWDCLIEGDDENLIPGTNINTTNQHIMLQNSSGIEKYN
In words: In vitro inhibitory activity towards the enzyme Lp-PLA2 in human serum, [3H]PAF substrate. The following applies: for inhibition at 0.01 µM: 10 nM; for inhibition at 0.1 µM: 100 nM. Type of assay: biochemical. The method in brief: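 Human plasma was preincubated with compound 10 min at 37 °C in 50 mM HEPES, 150 mM NaCl, pH 7.4. Reaction started with 20 nM [3H]PAF, run 10 min at 37 °C, then extracted with CHCl3/MeOH (2:1); radioactivity of the supernatant was counted.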

In assay [2] the target is T2, Lp-PLA2 in rabbit serum (Oryctolagus cuniculus, UniProt G1SE06).
T2 construct: from tissue; host or cells: rabbit serum
T2 sequence (G1SE06 22-423): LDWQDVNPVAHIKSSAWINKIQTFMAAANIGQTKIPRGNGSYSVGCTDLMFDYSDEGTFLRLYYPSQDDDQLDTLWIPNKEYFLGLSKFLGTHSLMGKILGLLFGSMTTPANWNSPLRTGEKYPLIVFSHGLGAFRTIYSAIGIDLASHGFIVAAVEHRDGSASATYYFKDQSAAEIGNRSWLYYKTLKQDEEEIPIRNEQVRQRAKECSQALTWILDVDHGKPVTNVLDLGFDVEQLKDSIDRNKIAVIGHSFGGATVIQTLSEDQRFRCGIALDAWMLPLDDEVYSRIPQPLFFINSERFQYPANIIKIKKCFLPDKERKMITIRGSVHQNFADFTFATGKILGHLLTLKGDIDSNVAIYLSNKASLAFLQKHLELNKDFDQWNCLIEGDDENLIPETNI
In words: In vitro inhibitory activity towards the enzyme Lp-PLA2 in rabbit serum, [3H]PAF substrate. Type of assay: biochemical. As to conditions: 100 nM.

The mark [3] stands for this setting: human serum, read-out: inhibition, %.
The mark [4] stands for this setting: read-out: inhibitory rate towards the human serum derived Lp-PLA2 enzyme.
Where [5] appears, read: rabbit serum, read-out: inhibition, %.
Where [6] appears, read: read-out: inhibitory rate towards the rabbit serum derived Lp-PLA2 enzyme.

As for `CN(C)/N=C/c1nnc(Cn2c(SCc3ccc(F)cc3)nc(=O)c3c2CCC3)n1Cc1ccc(-c2ccc(C(F)(F)F)cc2)cc1` [Example 116, (E)-1-((5-((2,2-dimethylhydrazono)methyl)-4-((4′-(trifluoromethyl)biphenyl-4-yl)methyl)-4H-1,2,4-triazol-3-yl)methyl)-2-(4-fluorobenzylthio)-6,7-dihydro-1H-cyclopenta[d]pyrimidin-4(5H)-one], the inhibition at 0.01 µM in assay [1] (setting [3]) is 88%; in assay [1] (setting [4]), more than 80%. Further, the results for the inhibition at 0.1 µM in assay [1] (human serum), in assay [2] (setting [5]) and in assay [2] (setting [6]) were 100%, 94% and more than 90%, respectively.

In the case of `O=c1nc(SCc2ccc(F)cc2)n(Cc2nnc(/C=N/N3CCCCC3)n2Cc2ccc(-c3ccc(C(F)(F)F)cc3)cc2)c2c1CCC2` [Example 117, (E)-2-(4-fluorobenzylthio)-1-((5-((piperidin-1-ylimino)methyl)-4-((4′-(trifluoromethyl)biphenyl-4-yl)methyl)-4H-1,2,4-triazol-3-yl)methyl)-6,7-dihydro-1H-cyclopenta[d]pyrimidin-4(5H)-one], in assay [1] (setting [3]), the inhibition at 0.01 µM is 67%. In addition, the results for the inhibition at 0.1 µM in assay [1] (human serum) and in assay [2] (setting [5]) were 92% and 80%, respectively.

For the compound `CC(C)(C)N/N=C/c1nnc(Cn2c(SCc3ccc(F)cc3)nc(=O)c3c2CCC3)n1Cc1ccc(-c2ccc(C(F)(F)F)cc2)cc1` [Example 118], in assay [1] (setting [3]), the inhibition at 0.01 µM is 58%. In addition, the inhibition at 0.1 µM in assay [1] (human serum) worked out at 88%; in assay [2] (setting [5]), 68%.

For `C=C(OC(C)=O)c1nnc(Cn2c(SCc3ccc(F)cc3)nc(=O)c3c2CCC3)n1Cc1ccc(-c2ccc(C(F)(F)F)cc2)cc1` [Example 119, 1-(5-((2-(4-fluorobenzylthio)-4-oxo-4,5,6,7-tetrahydro-1H-cyclopenta[d]pyrimidin-1-yl)methyl)-4-((4′-(trifluoromethyl)biphenyl-4-yl)methyl)-4H-1,2,4-triazol-3-yl)vinyl acetate], the figures for the inhibition at 0.01 µM in assay [1] (setting [3]) and in assay [1] (setting [4]) were 94% and more than 80%, respectively. Further, the values for the inhibition at 0.1 µM in assay [1] (human serum), in assay [2] (setting [5]) and in assay [2] (setting [6]) were 98%, 93% and more than 90%, respectively.

Consider `CC(O)c1nnc(Cn2c(SCc3ccc(F)cc3)nc(=O)c3c2CCC3)n1Cc1ccc(-c2ccc(C(F)(F)F)cc2)cc1` (stereo not shown) [Example 120, 2-(4-fluorobenzylthio)-1-((5-(1-hydroxyethyl)-4-((4′-(trifluoromethyl)biphenyl-4-yl)methyl)-4H-1,2,4-triazol-3-yl)methyl)-6,7-dihydro-1H-cyclopenta[d]pyrimidin-4(5H)-one], for which the inhibition at 0.01 µM in assay [1] (setting [3]) was 89%; in assay [1] (setting [4]), more than 80%. The inhibition at 0.1 µM is 98% in assay [1] (human serum), 90% in assay [2] (setting [5]) and more than 90% in assay [2] (setting [6]).

Regarding `C[N+](C)(CCO)Cc1nnc(Cn2c(SCc3ccc(F)cc3)nc(=O)c3c2CCC3)n1Cc1ccc(-c2ccc(C(F)(F)F)cc2)cc1` [Example 122, N-((5-((2-(4-fluorobenzylthio)-4-oxo-4,5,6,7-tetrahydro-1H-cyclopenta[d]pyrimidin-1-yl)methyl)-4-((4′-(trifluoromethyl)biphenyl-4-yl)methyl)-4H-1,2,4-triazol-3-yl)methyl)-2-hydroxy-N,N-dimethylethanaminium chloride], the inhibition at 0.01 µM is 92% in assay [1] (setting [3]) and more than 80% in assay [1] (setting [4]). Besides, the inhibition at 0.1 µM is 95% in assay [2] (setting [5]) and more than 90% in assay [2] (setting [6]).

For the compound `O=c1nc(SCc2ccc(F)cc2)n(Cc2nnc(COCCO)n2Cc2ccc(-c3ccc(C(F)(F)F)cc3)cc2)c2c1CCC2` [Example 123, 2-(4-fluorobenzylthio)-1-((5-((2-hydroxyethoxy)methyl)-4-((4′-(trifluoromethyl)biphenyl-4-yl)methyl)-4H-1,2,4-triazol-3-yl)methyl)-6,7-dihydro-1H-cyclopenta[d]pyrimidin-4(5H)-one], the inhibition at 0.01 µM in assay [1] (setting [3]) is 76%. Further, the inhibition at 0.1 µM in assay [2] (setting [5]) was 88%.

Regarding `CCN(CC)CCOCc1nnc(Cn2c(SCc3ccc(F)cc3)nc(=O)c3c2CCC3)n1Cc1ccc(-c2ccc(C(F)(F)F)cc2)cc1` [Example 125, 1-((5-((2-(diethylamino)ethoxy)methyl)-4-((4′-(trifluoromethyl)biphenyl-4-yl)methyl)-4H-1,2,4-triazol-3-yl)methyl)-2-(4-fluorobenzylthio)-6,7-dihydro-1H-cyclopenta[d]pyrimidin-4(5H)-one], the inhibition at 0.01 µM in assay [1] (setting [3]) is 76%. Besides, the inhibition at 0.1 µM in assay [2] (setting [5]) came to 92%.

For `CC(NCCN(C)C)c1nnc(Cn2c(SCc3ccc(F)cc3)nc(=O)c3c2CCC3)n1Cc1ccc(-c2ccc(C(F)(F)F)cc2)cc1` (stereo not shown) [Example 128, 1-((5-(1-(2-(dimethylamino)ethylamino)ethyl)-4-((4′-(trifluoromethyl)biphenyl-4-yl)methyl)-4H-1,2,4-triazol-3-yl)methyl)-2-(4-fluorobenzylthio)-6,7-dihydro-1H-cyclopenta[d]pyrimidin-4(5H)-one], the inhibition at 0.01 µM in assay [1] (setting [3]) was 90%; in assay [1] (setting [4]), more than 80%. Moreover, the inhibition at 0.1 µM in assay [2] (setting [5]) is 94%; in assay [2] (setting [6]), more than 90%.

Turning to `CCN(CC)CCNC(C)c1nnc(Cn2c(SCc3ccc(F)cc3)nc(=O)c3c2CCC3)n1Cc1ccc(-c2ccc(C(F)(F)F)cc2)cc1` (stereo not shown) [Example 130, 1-((5-(1-(2-(diethylamino)ethylamino)ethyl)-4-((4′-(trifluoromethyl)biphenyl-4-yl)methyl)-4H-1,2,4-triazol-3-yl)methyl)-2-(4-fluorobenzylthio)-6,7-dihydro-1H-cyclopenta[d]pyrimidin-4(5H)-one], the inhibition at 0.01 µM in assay [1] (setting [3]) turned out to be 92%. Besides, the inhibition at 0.1 µM in assay [2] (setting [5]) was determined as 94%.

Regarding `CCN(CC)CCN(CC(=O)O)Cc1nnc(Cn2c(SCc3ccc(F)cc3)nc(=O)c3c2CCC3)n1Cc1ccc(-c2ccc(C(F)(F)F)cc2)cc1` [Example 135, 2-((2-(diethylamino)ethyl)((3-((2-(4-fluorobenzylthio)-4-oxo-4,5,6,7-tetrahydro-1H-cyclopenta[d]pyrimidin-1-yl)methyl)-4-((4′-(trifluoromethyl)biphenyl-4-yl)methyl)-4H-1,2,4-triazol-5-yl)methyl)amino)acetic acid], the inhibition at 0.01 µM in assay [1] (setting [3]) is 66%. Moreover, the inhibition at 0.1 µM in assay [2] (setting [5]) stood at 83%.

Take `CCN(CC)Cc1onc(Cn2c(SCc3ccc(F)cc3)nc(=O)c3c2CCC3)c1Cc1ccc(-c2ccc(C(F)(F)F)cc2)cc1` [Example 157, 1-((5-((diethylamino)methyl)-4-((4′-(trifluoromethyl)biphenyl-4-yl)methyl)isoxazol-3-yl)methyl)-2-(4-fluorobenzylthio)-6,7-dihydro-1H-cyclopenta[d]pyrimidin-4(5H)-one]: the inhibition at 0.01 µM in assay [1] (setting [3]) stood at 96%. In assay [2] (setting [5]), the inhibition at 0.1 µM was found to be 89%.

For the compound `CN(C)CCN(C)Cc1onc(Cn2c(SCc3ccc(F)cc3)nc(=O)c3c2CCC3)c1Cc1ccc(-c2ccc(C(F)(F)F)cc2)cc1` [Example 158, 1-((5-(((2-(dimethylamino)ethyl)(methyl)amino)methyl)-4-((4′-(trifluoromethyl)biphenyl-4-yl)methyl)isoxazol-3-yl)methyl)-2-(4-fluorobenzylthio)-6,7-dihydro-1H-cyclopenta[d]pyrimidin-4(5H)-one], the inhibition at 0.01 µM was 98% in assay [1] (setting [3]) and more than 80% in assay [1] (setting [4]). Also, the inhibition at 0.1 µM was 98% in assay [2] (setting [5]) and more than 90% in assay [2] (setting [6]).
